Measured values taken from BindingDB's records for doi:10.7270/Q29Z939R (The Scripps Research Institute Molecular Screening Center, 2009).

Molecular target: T1, Core protein (Hepacivirus C, UniProt Q2Q167)
T1 sequence (Q2Q167 whole entry): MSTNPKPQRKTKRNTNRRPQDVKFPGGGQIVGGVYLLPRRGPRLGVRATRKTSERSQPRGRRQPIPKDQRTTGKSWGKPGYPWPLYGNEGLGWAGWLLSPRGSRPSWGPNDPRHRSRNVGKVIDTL
Test: disruption of hepatitis C core self-association – biochemical, TR-FRET, dose response (AID 2159)

IC50, > 49.8 µM:
CCOC1=CC(=Cc2c(-c3ccccc3)[nH]n(-c3nc(-c4ccc(Br)cc4)cs3)c2=O)C=CC1=O, Cc1sccc1C1C(C#N)C(=N)SC(=N)C1C#N (configuration not stated) [2,6-diamino-4-(2-methyl-3-thiophenyl)-4H-thiopyran-3,5-dicarbonitrile], Cc1cc(C)n2c(SCC(=O)C(C#N)c3nc4ccccc4[nH]3)nnc2n1 (configuration not stated) [2-(1,3-dihydrobenzimidazol-2-ylidene)-4-[(5,7-dimethyl-[1,2,4]triazolo[4,3-a]pyrimidin-3-yl)sulfanyl]-3-oxidanylidene-butanenitrile], O=C1Nc2ccc([N+](=O)[O-])cc2/C1=N/NC(=O)c1cc(-c2ccccc2Cl)nc2ccccc12 [2-(2-chlorophenyl)-N'-(2-keto-5-nitro-indol-3-yl)cinchoninohydrazide], O=[N+]([O-])c1cc([CH+][N-]n2c(O)csc2=S)ccc1Cl [3-[(4-chloranyl-3-nitro-phenyl)methylideneamino]-2-sulfanylidene-1,3-thiazolidin-4-one], Cc1cccc2c1NC(=O)C2=NNc1ccc(S(=O)(=O)Nc2ccc(Cl)cc2)cc1[N+](=O)[O-] [MLS000393762], COc1cccc(CN=Nc2ncnc3c2[nH]c2ccc(C)cc23)c1OC [SMR000439805]
